Laboratory results published in patent US4382090A, “N-Thiazolylmethylthioalkyl-N'alkylamidines and related compounds” (Eli Lilly and Company, priority 1981, dated 1983).
Each block holds one compound with its values, some of them ahead of it.

How the values were obtained:
H2 -receptor [1] = conditions: cited from earlier work
H2 -receptor [2] = conditions: cited from earlier work; remark: listed apart in the source
H2 -receptors = target: T1, H2 -receptors (Rattus norvegicus, UniProt P25102); experiment: H2-receptor blocking activity, isolated rat uterine horn (histamine relaxation of KCl-contracted uterus); conditions: for Kb: rat uterus, Schild plot, read-out: KB (dissociation constant of the antagonist)
T1 construct: from tissue; host or cells: uterine horn of estrone-treated female albino rats
Procedure: The following assay for H2 -receptor blocking activity was employed. Female albino rats were treated with estrone 24 hours prior to the initiation of the experiment. The rats were sacrificed and the uterine horns removed therefrom and suspended at ambient temperatures in isolated organ baths containing De Jalon's solution. After equilibration, the uterine strips are exposed to 50 millimole aqueous potassium chloride, which produces a sustained contraction. When the uterus is so contracted, histamine produces a dose-dependent H2 -receptor-mediated relaxation. A control dose-response curve to histamine is constructed on each tissue. Following thorough washout of the histamine after obtaining the control dose-response curve, each antagonist (the compounds of this invention) is added for 30 minutes at a concentration of 10^-5 molar. The uterine strips are then contracted with aqueous potassium chloride in the presence of the antagonist and a second dose-response curve to histamine obtained. In the presence of a competitive antagonist, the dose-response curve to histamine is shifted in parallel to the right with no depression of the maximum relative to the control curve. The dose ratio (DR) is calculated for each concentration of antagonist by dividing the ED50 of histamine in the presence of the competitive antagonist by the control ED50 for histamine. The dissociation constant (KB) of the antagonist is calculated from the dose-ratios by the following equation: […]

[3] = Preliminary tests of duration of action
[4] = cited from earlier work
[5] = cited from earlier work; remark: listed apart in the source

T1 sequence (P25102 whole entry): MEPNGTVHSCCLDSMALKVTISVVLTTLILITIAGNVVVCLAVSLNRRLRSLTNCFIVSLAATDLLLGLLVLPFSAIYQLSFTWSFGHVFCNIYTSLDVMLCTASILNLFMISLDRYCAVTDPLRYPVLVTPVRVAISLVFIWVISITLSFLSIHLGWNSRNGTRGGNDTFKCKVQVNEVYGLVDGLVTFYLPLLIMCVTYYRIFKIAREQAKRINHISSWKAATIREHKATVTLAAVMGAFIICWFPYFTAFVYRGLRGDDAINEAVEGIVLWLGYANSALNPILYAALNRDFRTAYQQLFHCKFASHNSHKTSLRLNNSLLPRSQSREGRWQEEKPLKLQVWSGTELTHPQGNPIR

Compound: C#CCNC(=C[N+](=O)[O-])NCCSCc1ccc(CN(C)C)o1 [1-nitro-2-(2-propynylamino)-2-(2-[(5-dimethylaminomethyl-2-furyl)methylthio]ethylamino)ethylene]
activity relative to cimetidine in a standard H2 -receptor assay (H2 -receptor [1]): 7.45 times

Compound: CNC(=NC#N)NCCSCc1csc(NC(=N)N)n1 [2-guanidino-4-[2-(2-cyano-3-methylguanidino)ethylthiomethyl]thiazole]
activity compared with cimetidine (H2 -receptor [2]): greatly increased activity over cimetidine

Kb (H2 -receptors): 87 nM
Compound: CNC(=C[N+](=O)[O-])NCCSCc1csc(CN(C)C)n1 [N-methyl-N'-2-(2-dimethylaminomethyl-4-thiazolylmethylthio)ethyl 2-nitro-1,1-ethenediamine]
duration of action compared with cimetidine [3]: longer duration of action

affinity for the H2 -receptors relative to cimetidine (H2 -receptors; rat uterine strips, antagonist 10^-5 molar for 30 minutes): about 1.5 times
Compound: CNC(=NC#N)NCCSCc1csc(CN(C)C)n1 [N-methyl-N'-2-(2-dimethylaminomethyl-4-thiazolylmethylthio)ethyl-N"-cyanoguanidine]

Compound: CN/C(=N/CCSCc1nc[nH]c1C)NC#N [cimetidine, N-cyano-N'-methyl-N"-[2-([(5-methyl-1H-imidazol-4-yl)methyl]thio)ethyl]guanidine]
Literature LD50 rat iv ([4]; iv): 106 mg/kg
Literature LD50 rat oral ([4]; oral): 5000 mg/kg
Kb (H2 -receptors): 871 nM
Literature LD50 mouse iv [5]: 150 mg/kg
